Test results: patent US6331555A, “Treatment of platelet derived growth factor related disorders such as cancers” (priority 1999, dated 2001)
Values joined by “and” are separate entries in the source; they are usually repeats but may differ in a detail not shown here. Identical values can stand only once. Like-named read-outs stand apart in the source and are kept apart here.

Columns and labels:
C6 cells = test: C6 SRB growth assay; assay type: cell-based, rat; details: Rattus norvegicus, C6; read-out: C6 SRB IC50
PDGF-R (U1242) = biological target: T1, PDGF-R (U1242) (Homo sapiens, UniProt P09619); test: U1242 kinase (PDGF-R activity); assay type: cell-based
T1 construct: U1242 (PDGF-β receptor); host or cells: U1242 MG glioma cells
Protocol: (§1) For western blotting, cells were plated in 2 mL growth medium into 6-well dishes (500,000 cells per well) and allowed to attach overnight. […] The plates were then incubated overnight at 37° C., ambient CO2. […] After a 7 min incubation at room temperature with ligand, the plates were put on ice and washed three times with 1 mL ice-cold PBS plus 1 mM orthovanadate. Lysis was achieved by pipetting cells in 0.5 mL of buffer containing 50 mM Tris, pH 7.4, 10% glycerol, 1% NP-40, 2 mM EDTA, 1 mM sodium vanadate (Na3 VO4), 10 mM pyrophosphate, 1 mM PMSF, […]. A 300 μL aliquot of each lysate was immediately added to 100 μL 4×Laemmli sample buffer ([…] Tris pH 6.9, 20% glycerol, 7% SDS, 5 mM EDTA, 5% β-mercaptoethanol) containing phosphatase inhibitors, 2 mM Na3 VO4 and 10 mM pyrophosphate. Samples were boiled for 5 min, frozen in dry ice-ethanol, and stored at -80° C. […] The integrity of the protein-to-membrane transfer was determined by staining with 1% Ponceau S in 5% acetic acid for 5 min. After destaining in several distilled water rinses, the membrane was soaked overnight in blocking buffer containing 5% milk in Tris-buffered saline, 0.05% Tween 20. Phosphotyresine was detected by incubating the membrane (1 hr at room temperature) with an anti-phosphotyosine antiserum diluted in blocking buffer at 1:3000. […] The antibodies were visualized using ECL reagent from Amersham and by exposure to Fuji RX film.
(§2) For ELISA assays, cells were grown to 80-90% confluency in growth medium and seeded in 96-well tissue culture plates in 0.5% serum at 25,000 to 30,000 cells per well. After overnight incubation in 0.5% serum-containingmedium, cells were changed to serum-free medium and treated with test compound for 2 hr in a 5% CO2, 37° C. incubator. […] Lysates were incubated with shaking for 1 hr at room temperature. The plates were washed with TBST four times and then incubated with polyclonol anti-phosphotyrosine antibody at room temperature for 30 min. Excess anti-phosphotyrosine antibody was removed by rinsing the plate with TBST four times. Goat anti-rabbit IgG antibody was added to the ELISA plate for 30 min at room temperature followed by rinsing with TBST four more times.
PDGF-R activity, C6 SRB, and in vivo efficacy were measured using the procedures described in the appendices above.

PDGFR [1] = test: Receptor tyrosine kinase inhibition, PDGFR; assay type: cell-based
Protocol: as §1, §2
(§3) The ability of different compound to inhibit different receptor tyrosine kinases was tested.

EGFR = biological target: T2, EGFR (Homo sapiens, UniProt P00533); test: Receptor tyrosine kinase inhibition, EGFR; assay type: cell-based; details: for IC50: read-out: EGFR ID50
T2 construct: expressed in transfected cells; host or cells: NIH3T3 mouse fibroblasts, retroviral vector
Protocol: (§4) For western blotting, cells were plated in 2 mL growth medium into 6-well dishes (500,000 cells per well) and allowed to attach overnight. The medium was replaced with 2 mL MCDB 105 (UCSF Cell Culture Facility) supplemented with 1% FBS. The plates were then incubated overnight at 37° C., ambient CO2. […] After a 7 min incubation at room temperature with ligand, the plates were put on ice and washed three times with 1 mL ice-cold PBS plus 1 mM orthovanadate. Lysis was achieved by pipetting cells in 0.5 mL of buffer containing 50 mM Tris, pH 7.4, 10% glycerol, 1% NP-40, 2 mM EDTA, 1 mM sodium vanadate (Na3 VO4), 10 mM pyrophosphate, 1 mM PMSF, […]. A 300 μL aliquot of each lysate was immediately added to 100 μL 4×Laemmli sample buffer ([…] Tris pH 6.9, 20% glycerol, 7% SDS, 5 mM EDTA, 5% β-mercaptoethanol) containing phosphatase inhibitors, 2 mM Na3 VO4 and 10 mM pyrophosphate. Samples were boiled for 5 min, frozen in dry ice-ethanol, and stored at -80° C. Proteins were resolved by SDS-PAGE (Bio-Rad Miniprotean II) and transferred to nitrocellulose membrane (Schleicher & Schuell) at 120 volts for 1 hr at room temperature in buffer containing 25 mM Tris pH 8.3, 20% methanol, 0.2 M glycine, 0.1% SDS. The integrity of the protein-to-membrane transfer was determined by staining with 1% Ponceau S in 5% acetic acid for 5 min. After destaining in several distilled water rinses, the membrane was soaked overnight in blocking buffer containing 5% milk in Tris-buffered saline, 0.05% Tween 20. Phosphotyresine was detected by incubating the membrane (1 hr at room temperature) with an anti-phosphotyosine antiserum diluted in blocking buffer at 1:3000. For C6 cells, PDGF-β receptor content in the lysates was confirmed in duplicate sample lanes by western blotting using an antibody specific for PDGF-β receptor (UBI). The antibodies were visualized using ECL reagent from Amersham and by exposure to Fuji RX film.
(§5) For ELISA assays, cells were grown to 80-90% confluency in growth medium and seeded in 96-well tissue culture plates in 0.5% serum at 25,000 to 30,000 cells per well. After overnight incubation in 0.5% serum-containingmedium, cells were changed to serum-free medium and treated with test compound for 2 hr in a 5% CO2, 37° C. incubator. Cells were then stimulated with ligand for 5-10 min followed by lysis with HNTG (20 mM Hepes, 150 mM NaCl, 10% glycerol, 5 mM EDTA, 5 mM Na3 VO4 0.2% Triton X-100, and 2 mM NaPyr). Cell lysates (0.5 mg/well in PBS) were transferred to ELISA plates previously coated with receptor-specific antibody and which had been blocked with 5% milk in TBST (50 mM Tris-HCl pH 7.2, 150 mM NaCl and 0.1% Triton X-100) at room temperature for 30 min. Lysates were incubated with shaking for 1 hr at room temperature. The plates were washed with TBST four times and then incubated with polyclonol anti-phosphotyrosine antibody at room temperature for 30 min. Excess anti-phosphotyrosine antibody was removed by rinsing the plate with TBST four times. Goat anti-rabbit IgG antibody was added to the ELISA plate for 30 min at room temperature followed by rinsing with TBST four more times.
as §3

HER2 = test: Receptor tyrosine kinase inhibition, HER2; assay type: cell-based; details: for IC50: read-out: HER2 IC50
Protocol: as §4, §5, §3

FLK-1 = biological target: T3, FLK-1 (Mus musculus, UniProt P35918); test: Receptor tyrosine kinase inhibition, FLK-1; assay type: cell-based; details: read-out: FLK-1 IC50
T3 construct: expressed in transfected cells; host or cells: NIH3T3 mouse fibroblasts, retroviral vector
Protocol: as §4, §5, §3

PDGFR [2] = biological target: T4, PDGFR (Homo sapiens, UniProt P09619); test: Receptor tyrosine kinase inhibition, PDGFR; assay type: cell-based; parameters: U1242 (PDGF-β receptor); host or cells: U1242 glioma cells (ELISA); details: read-out: PDGFR IC50
Protocol: as §1, §2, §3

PDGFR [3] = biological target: T4, PDGFR; test: PDGF-stimulated receptor phosphorylation in U1242 cells, ELISA; assay type: cell-based; parameters: U1242 (PDGF-β receptor); host or cells: U1242 MG glioma cells; details: 100 ng/ml PDGF-BB; read-out: ELISA P-TYR U1242 IC50
Protocol: as §5, with “Cell lysates (0.5 mg/well in PBS) were transferred to ELISA plates previously coated with receptor-specific antibody and which had been blocked with 5% milk in TBST (50 mM Tris-HCl pH 7.2, 150 mM NaCl and 0.1% Triton X-100) at room temperature for 30 min.” left out
U1242 MG cells were plated in 96-well plates at a concentration of 5×10^4 cells/well in cultured media containing 0.5% FBS. The cells were incubated for 24 hours. The cells were then treated with a particular compound for 2 hours followed by the addition of 100 ng/ml PDGF-BB and incubation for 10 minutes.
Cells were lysed in 0.2 M Hepes, 0.15 M NaCl, 10% V/V glycerol, 0.04% Triton X-100, 5 mM EDTA, 5 MM Na^+ vanadate and […] Na^+ pyrophosphate. Cell lysates were then added to an ELISA plate coated with an anti-PDGF receptor antibody (Genzyme). ELISA plates were coated at […] of antibody/well in […] of PBS for 18 hours at 4° C. prior to the addition of the lysate.
The lysate was incubated in the coated plates for 1 hour and then washed four times in TBST (35 mM Tris-HCl pH 7.0, 0.15 M NaCl, 0.1% Triton X-100). Anti-phosphotyrosine antibody ([…] in PBS) was added and the mixture was incubated for 30 minutes at room temperature. The wells were then washed four times in TBST, a secondary antibody conjugated to POD (TAGO) was added to each well, and the treated wells were incubated for 30 minutes at room temperature. The wells were then washed four times in TBST, ABTS/H2 O2 solution was added to each well and the wells were incubated for two minutes. Absorbance was then measured at 410 nm.

[4] = W = done in Western assay; read-out: PDGFR IC50 (W)
[5] = W = done in Western assay, read-out: U1242 KINASE IC50 (W)

T2 sequence (P00533 25-1210): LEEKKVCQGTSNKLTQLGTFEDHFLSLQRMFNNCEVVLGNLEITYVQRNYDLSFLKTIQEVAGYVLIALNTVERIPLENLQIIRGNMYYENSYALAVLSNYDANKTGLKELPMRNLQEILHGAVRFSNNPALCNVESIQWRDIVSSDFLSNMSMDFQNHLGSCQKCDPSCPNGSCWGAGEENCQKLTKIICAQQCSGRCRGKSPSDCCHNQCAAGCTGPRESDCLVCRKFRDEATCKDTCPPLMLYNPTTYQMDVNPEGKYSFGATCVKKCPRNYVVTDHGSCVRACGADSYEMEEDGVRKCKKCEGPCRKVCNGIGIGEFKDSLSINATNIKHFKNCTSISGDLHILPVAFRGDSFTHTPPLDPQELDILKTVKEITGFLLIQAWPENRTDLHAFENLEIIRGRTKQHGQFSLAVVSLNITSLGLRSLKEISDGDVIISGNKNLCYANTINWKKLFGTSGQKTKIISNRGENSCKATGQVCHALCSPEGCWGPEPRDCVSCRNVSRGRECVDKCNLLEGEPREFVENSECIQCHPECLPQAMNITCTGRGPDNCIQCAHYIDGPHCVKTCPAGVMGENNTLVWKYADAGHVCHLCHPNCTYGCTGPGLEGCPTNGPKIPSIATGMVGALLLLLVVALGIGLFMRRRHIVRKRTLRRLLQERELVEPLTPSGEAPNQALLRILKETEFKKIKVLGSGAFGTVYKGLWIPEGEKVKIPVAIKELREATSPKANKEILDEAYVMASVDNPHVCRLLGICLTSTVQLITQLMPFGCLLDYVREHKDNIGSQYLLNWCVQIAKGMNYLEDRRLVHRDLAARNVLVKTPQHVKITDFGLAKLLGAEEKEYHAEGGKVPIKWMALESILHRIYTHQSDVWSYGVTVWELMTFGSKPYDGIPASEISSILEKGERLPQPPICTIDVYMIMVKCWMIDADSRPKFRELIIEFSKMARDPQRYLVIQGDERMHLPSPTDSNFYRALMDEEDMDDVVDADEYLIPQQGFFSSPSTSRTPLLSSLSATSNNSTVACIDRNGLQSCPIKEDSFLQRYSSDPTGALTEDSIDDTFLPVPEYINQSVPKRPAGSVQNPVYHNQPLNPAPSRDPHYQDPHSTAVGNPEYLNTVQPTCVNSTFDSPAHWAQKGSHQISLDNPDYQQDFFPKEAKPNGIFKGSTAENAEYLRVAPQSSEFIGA
T3 sequence (P35918 20-1345): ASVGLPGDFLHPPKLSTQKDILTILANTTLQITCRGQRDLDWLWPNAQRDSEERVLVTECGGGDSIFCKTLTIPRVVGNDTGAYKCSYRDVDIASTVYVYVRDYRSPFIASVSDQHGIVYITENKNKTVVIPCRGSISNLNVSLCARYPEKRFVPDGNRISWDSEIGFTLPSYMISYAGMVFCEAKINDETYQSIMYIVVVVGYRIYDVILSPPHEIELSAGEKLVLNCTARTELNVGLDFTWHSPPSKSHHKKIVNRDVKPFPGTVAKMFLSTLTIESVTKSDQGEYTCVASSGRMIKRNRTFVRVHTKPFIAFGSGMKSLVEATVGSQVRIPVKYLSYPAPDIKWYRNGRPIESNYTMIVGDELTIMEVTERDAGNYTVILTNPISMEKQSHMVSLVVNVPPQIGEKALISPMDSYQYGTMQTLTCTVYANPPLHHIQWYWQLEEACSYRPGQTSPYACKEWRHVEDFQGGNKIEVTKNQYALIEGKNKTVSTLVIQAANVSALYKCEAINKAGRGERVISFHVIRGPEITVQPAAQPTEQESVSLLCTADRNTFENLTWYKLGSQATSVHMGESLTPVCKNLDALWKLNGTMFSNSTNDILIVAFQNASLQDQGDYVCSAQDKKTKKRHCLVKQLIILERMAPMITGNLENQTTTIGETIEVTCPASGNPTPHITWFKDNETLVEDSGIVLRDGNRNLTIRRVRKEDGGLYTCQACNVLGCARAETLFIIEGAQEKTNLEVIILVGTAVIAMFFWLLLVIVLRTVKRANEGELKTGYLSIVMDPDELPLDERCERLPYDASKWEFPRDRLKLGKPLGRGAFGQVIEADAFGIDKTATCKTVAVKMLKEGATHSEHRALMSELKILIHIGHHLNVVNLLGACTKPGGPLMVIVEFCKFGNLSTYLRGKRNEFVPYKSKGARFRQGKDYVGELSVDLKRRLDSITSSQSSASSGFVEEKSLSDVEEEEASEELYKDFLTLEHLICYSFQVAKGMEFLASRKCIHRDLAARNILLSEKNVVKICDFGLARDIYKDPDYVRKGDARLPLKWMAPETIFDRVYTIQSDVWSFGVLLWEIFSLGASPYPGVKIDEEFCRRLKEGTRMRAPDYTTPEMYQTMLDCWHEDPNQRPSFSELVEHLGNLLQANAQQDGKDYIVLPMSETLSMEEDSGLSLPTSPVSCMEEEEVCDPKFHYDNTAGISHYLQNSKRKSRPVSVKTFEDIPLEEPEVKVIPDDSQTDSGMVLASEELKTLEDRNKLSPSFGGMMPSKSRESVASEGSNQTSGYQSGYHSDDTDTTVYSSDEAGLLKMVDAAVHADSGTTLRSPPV
T4 sequence (P09619 33-1106): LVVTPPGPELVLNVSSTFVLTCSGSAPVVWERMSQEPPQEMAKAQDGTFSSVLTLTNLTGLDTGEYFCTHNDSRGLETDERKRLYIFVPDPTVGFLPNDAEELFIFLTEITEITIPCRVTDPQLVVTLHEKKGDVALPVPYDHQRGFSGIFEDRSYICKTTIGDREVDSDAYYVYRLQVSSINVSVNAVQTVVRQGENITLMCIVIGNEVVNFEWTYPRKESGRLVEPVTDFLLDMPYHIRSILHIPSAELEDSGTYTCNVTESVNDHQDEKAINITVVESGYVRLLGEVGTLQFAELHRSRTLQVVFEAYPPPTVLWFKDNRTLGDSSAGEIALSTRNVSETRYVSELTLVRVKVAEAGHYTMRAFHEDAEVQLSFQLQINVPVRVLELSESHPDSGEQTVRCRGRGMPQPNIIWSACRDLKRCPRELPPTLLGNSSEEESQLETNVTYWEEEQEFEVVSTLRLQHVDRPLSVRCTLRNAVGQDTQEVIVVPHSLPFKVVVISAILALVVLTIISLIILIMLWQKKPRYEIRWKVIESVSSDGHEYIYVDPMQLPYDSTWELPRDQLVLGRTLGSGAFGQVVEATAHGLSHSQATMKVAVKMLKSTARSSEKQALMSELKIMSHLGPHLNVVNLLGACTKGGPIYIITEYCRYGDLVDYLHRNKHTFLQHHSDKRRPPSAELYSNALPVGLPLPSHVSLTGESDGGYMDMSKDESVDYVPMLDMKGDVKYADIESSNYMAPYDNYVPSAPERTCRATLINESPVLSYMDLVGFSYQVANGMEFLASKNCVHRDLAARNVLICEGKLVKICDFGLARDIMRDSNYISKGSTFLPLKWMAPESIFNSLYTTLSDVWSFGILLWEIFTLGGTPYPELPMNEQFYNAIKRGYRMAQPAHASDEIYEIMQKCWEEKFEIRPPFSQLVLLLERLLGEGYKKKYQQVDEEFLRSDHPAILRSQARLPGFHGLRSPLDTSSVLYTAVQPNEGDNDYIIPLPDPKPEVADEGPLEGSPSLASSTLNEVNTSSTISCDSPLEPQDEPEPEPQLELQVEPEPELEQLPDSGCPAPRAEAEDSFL
T1 sequence (P09619 33-1106): as above

Row | IC50 (PDGFR [1]; [4]) [µM] | IC50 (EGFR) [µM] | IC50 (HER2) [µM] | IC50 (FLK-1) [µM] | IC50 (PDGFR [3]) [µM] | SMILES | further results
1 |  |  |  |  |  | Cc1cc2ccccc2c[n+]1[O-] [Compound P13] | IC50 (C6 cells): > 100 µM; IC50 (PDGF-R (U1242); read-out: U1242 KINASE IC50): 1.2 µM
2 | 3 | 31 | > 100 | > 25 |  | N#CC(=Cc1cc(O)c(O)c(Br)c1)C(=O)NCCCNC(=O)C(C#N)=Cc1cc(O)c(O)c(Br)c1 [Compound P10] | IC50 (C6 cells): 12 µM; IC50 (PDGF-R (U1242); [5]): 3 µM
3 |  | > 100 | > 50 | > 50 |  | COCCCN1C(=O)SC(=Cc2ccccc2Cl)C1=O [Compound P15] | IC50 (PDGFR [2]): 46 µM
4 | 30 | > 100 | > 100 | > 500 |  | N#CC(=Cc1ccc(O)c(O)c1)C(=O)NCc1ccc(F)cc1 [Compound P25] | 
5 | 10 |  |  | > 50 | 10 | c1ccc(-c2cnc3ccccc3n2)cc1 [Compound G10] | 
6 |  | > 50 | > 50 | > 50 |  | CN(C)CCn1cc(C=C(C#N)c2[nH]nc(N)c2C#N)c2ccccc21 [Compound D18] | IC50 (PDGFR [2]): 34 µM
7 |  |  |  |  |  | Cc1cc2ncc(Nc3cccc(Br)c3)nc2cc1C [Compound G28] | IC50 (C6 cells): 4.5 µM; IC50 (PDGF-R (U1242); scndry, read-out: U1242 KINASE IC50 (scndry)): 16.4 µM
8 | 10 |  |  | > 50 | 10 | COc1cc2cc(-c3ccccc3)c(Cl)nc2cc1OC [Compound G12] | PDGF-R phosphorylation (PDGFR [1]): inhibit PDGF-R phosphorylation; EGF receptor phosphorylation (EGFR): do not effect EGF or HER2 phosphorylation; HER2 phosphorylation (HER2): do not effect EGF or HER2 phosphorylation
9 |  | > 50 | 10 | > 200 |  | COc1cc2ncnc(Nc3ccccc3)c2cc1OC [Compound P14] | IC50 (PDGFR [2]): 26 µM
10 |  |  |  |  |  | COc1cccc(NC(=S)C(C#N)C(=O)N2CCCC2)c1 (stereo not drawn) [Compound P21, N-3-methoxyphenyl (2-cyano-2-N-pyrrolidinycarbonyl) thioacetamide] | IC50 (C6 cells): > 25 µM; IC50 (PDGF-R (U1242); read-out: U1242 KINASE IC50): 93 µM
11 | 25 |  |  |  | 25 | N#CC(=Cc1ccc(O)c(O)c1)c1c(C#N)c(N)nn1-c1ccccc1 [Compound C10] | PDGF-R phosphorylation (PDGFR [1]): effects EGF-4, PDGF-R, and HER2 phosphorylation; EGF receptor phosphorylation (EGFR): effects EGF-4, PDGF-R, and HER2 phosphorylation; HER2 phosphorylation (HER2): effects EGF-4, PDGF-R, and HER2 phosphorylation
12 | 25 |  |  |  | 30 | CC1c2nc3ccccc3c(=O)n2C(c2cccc(O)c2)N1Cc1ccccc1 (stereo not drawn) [Compound H12] | IC50 (C6 cells): 19 µM; IC50 (PDGF-R (U1242); [5]): > 250 µM and 25 µM
13 |  | > 100 | > 50 | > 50 |  | Cc1cc2ncc(-c3ccc([N+](=O)[O-])cc3)nc2cc1C [Compound G27, 2-(4-nitrophenyl) 6.7 dimethylquinoxaline] | IC50 (PDGFR [2]): 48 µM
14 | 25 |  | > 50 | > 50 |  | O=C(Nc1cc(C(F)(F)F)cc(C(F)(F)F)c1)c1cccs1 [Compound P12] | 
15 | 10 |  |  | > 50 | 100 | CCOc1ccccc1NC(=O)C(=O)NN=Cc1ccc(O)c(O)c1 [Compound E14] | 
16 | 30 |  |  | > 50 | 30 | N#CC(=Cc1c[nH]c2ccccc12)C(N)=O [Compound D13] | 

Row | SMILES | IC50 (PDGFR [1]; [4]) [µM] | IC50 (EGFR) [µM] | IC50 (HER2) [µM] | IC50 (FLK-1) [µM] | IC50 (PDGFR [3]) [µM] | further results
17 | O=[N+]([O-])c1ccc2ncc(-c3ccccc3)nc2c1 [Compound G23] |  | > 100 | > 100 | 325 |  | IC50 (PDGFR [1]; read-out: PDGFR IC50 (W); W = done in Western assay): 25 µM
